Assay results as given in publication PMC4076177, “Soluble Phosphatidylserine Binds to Two Sites on Human Factor IXa in a Ca^2+ Dependent Fashion to Specifically Regulate Structure and Activity” (PLoS ONE, 2014).

molecular target: T1, Human FIXa (Homo sapiens, UniProt P00740); assay: intrinsic fluorescence titration, single-site hyperbolic fit; assay type: binding; conditions: 5 mM CaCl2, 0.20 µM FIXa, 50 mM Tris, 150 mM NaCl, 0.6% PEG, pH 7.5, 22°C; unreliable (Figure 2 legend prints 2000 µM)
T1 construct: gene F9; purchased from Haematologic Technologies, no tag stated
T1 sequence (P00740 47-191): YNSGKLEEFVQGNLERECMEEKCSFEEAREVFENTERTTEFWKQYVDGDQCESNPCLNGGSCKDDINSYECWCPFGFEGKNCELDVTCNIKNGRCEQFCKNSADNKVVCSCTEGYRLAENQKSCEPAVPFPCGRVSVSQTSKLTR
T1 sequence (P00740 227-461): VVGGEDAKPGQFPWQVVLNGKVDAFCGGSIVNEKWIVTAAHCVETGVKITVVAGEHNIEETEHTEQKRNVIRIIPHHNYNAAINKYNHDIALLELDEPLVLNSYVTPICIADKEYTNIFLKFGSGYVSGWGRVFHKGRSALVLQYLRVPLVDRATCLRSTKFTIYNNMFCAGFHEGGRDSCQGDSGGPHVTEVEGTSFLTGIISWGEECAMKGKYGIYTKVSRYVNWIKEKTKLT
From the text: intrinsic fluorescence titration, single-site hyperbolic fit on Human FIXa

Row | SMILES | Kd, μM (determined by monitoring change in intrinsic fluorescence) [µM]
1 | CCCCCC(=O)OC[C@H](COP(=O)([O-])OCC[N+](C)(C)C)OC(=O)CCCCC [C6PC] | 1000 ± 45

same assay, conditions: read-out: Kd, μM (determined by monitoring change in intrinsic fluorescence)

Row | SMILES | Kd [µM]
2 | CCCCCC(=O)OC[C@H](COP(=O)(O)OC[C@@H](N)C(=O)O)OC(=O)CCCCC [C6(D)PS] | 208 ± 18
3 | CCCCCC(=O)OC[C@H](COP(=O)(O)O)OC(=O)CCCCC [C6PA] | 238 ± 42.7
4 | CCCCCC(=O)OC[C@H](COP(=O)(O)OCCN)OC(=O)CCCCC [C6PE] | 66 ± 7
5 | CCCCCC(=O)OC[C@H](COP(=O)(O)OCC(O)CO)OC(=O)CCCCC (stereo partly drawn) [C6PG] | 307 ± 28.8
6 | CCCCCC(=O)OC[C@H](COP(=O)(O)OC[C@H](N)C(=O)O)OC(=O)CCCCC [C6PS, 1,2-dicaproyl-sn-glycero-3-phospho-L-serine] | 1.3 ± 0.2
